Results: BindingDB's records for doi:10.1016/S0960-894X(96)00551-3 (1996)

Legend:
[1] = Compound was tested for its ability to inhibit Endothelin A receptor induced arachidonic acid release(AARA) in rabbit renal artery vascular smooth muscles.
[2] = molecular target: Endothelin A receptor (Oryctolagus cuniculus); experiment: as above
[3] = molecular target: Endothelin A receptor (Oryctolagus cuniculus); experiment: Antagonistic activity against endothelin A receptor in rabbit renal artery vascular smooth muscle cells.

| SMILES | IC50 [2] [µM] | IC50 [3] [µM] | other results |
| --- | --- | --- | --- |
| OCC(c1ccc2c(c1)OCO2)c1c2ccccc2nc2ccccc12 (stereo unspecified) [2-Acridin-9-yl-2-benzo[1,3]dioxol-5-yl-ethanol] | – | – | IC50 [1]: 10 µM |
| Cc1cc(C(C(N)=O)c2ccc3c(c2)OCO3)c2ccccc2n1 (stereo unspecified) [2-Benzo[1,3]dioxol-5-yl-2-(2-methyl-quinolin-4-yl)-acetamide] | 13 | – | – |
| COC(=O)C(Cc1c2ccccc2cc2ccccc12)c1ccc2c(c1)OCO2 (stereo unspecified) [3-Anthracen-9-yl-2-benzo[1,3]dioxol-5-yl-propionic acid methyl ester] | – | > 25 | – |
| O=C(OCc1ccc2c(c1)OCO2)C(c1ccc2c(c1)OCO2)c1c2ccccc2nc2ccccc12 (stereo unspecified) [Acridin-9-yl-benzo[1,3]dioxol-5-yl-acetic acid benzo[1,3]dioxol-5-ylmethyl ester] | – | 8.7 | – |
| O=C(OCc1ccccc1)C(c1ccc2c(c1)OCO2)c1c2ccccc2nc2ccccc12 (stereo unspecified) [Acridin-9-yl-benzo[1,3]dioxol-5-yl-acetic acid benzyl ester] | – | 7.5 | – |
| COC(=O)C(c1ccc2c(c1)OCO2)c1cc(C)nc2ccccc12 (stereo unspecified) [Benzo[1,3]dioxol-5-yl-(2-methyl-quinolin-4-yl)-acetic acid methyl ester] | 2.8 | – | – |
